Experimental data as given in the NIST ThermoML archive (doi:10.1016/j.fluid.2005.06.011).
Numbers after ± are expanded uncertainties.

How the values were obtained:
[1] = refractive index (Na D-line) (dimensionless); conditions: 308.15 K; 101.33 kPa; Liquid; Standard Abbe refractometry
[2] = 308.15 K; 101.33 kPa; Liquid; Vibrating tube method
[3] = excess molar enthalpy (molar enthalpy of mixing); xn = mol fraction of the nth substance listed; conditions: 308.15 K, 101.3 kPa, Liquid
[4] = xn = mol fraction of the nth substance listed; conditions: 308.15 K, 101.3 kPa, Liquid

Cc1ccccc1C [1,2-dimethylbenzene]
Conditions	mass density [kg/m3]	refractive index
[1]	–	1.5031 ± 0.0012
[2]	867.41 ± 2.3	–

Cc1ccccc1C [1,2-dimethylbenzene] + CCCCOC(C)=O
Conditions	excess molar enthalpy [kcal/mol]	excess molar volume [m3/mol]
[3], x2 = 0.0707	-0.00215 ± 0.00043	–
[3], x2 = 0.1859	-0.00296 ± 0.00043	–
[3], x2 = 0.2214	-0.00478 ± 0.000454	–
[3], x2 = 0.3134	-0.00621 ± 0.000478	–
[3], x2 = 0.3539	-0.00652 ± 0.000478	–
[3], x2 = 0.4773	-0.00693 ± 0.000502	–
[3], x2 = 0.5868	-0.00717 ± 0.000502	–
[3], x2 = 0.6462	-0.00696 ± 0.000502	–
[3], x2 = 0.8002	-0.00526 ± 0.000478	–
[3], x2 = 0.8364	-0.00454 ± 0.000454	–
[4], x2 = 0.1121	–	-2.8e-08 ± 9e-09
[4], x2 = 0.1983	–	-6.3e-08 ± 1e-08
[4], x2 = 0.2744	–	-8.2e-08 ± 1e-08
[4], x2 = 0.3652	–	-9.7e-08 ± 1e-08
[4], x2 = 0.4665	–	-1.09e-07 ± 1e-08
[4], x2 = 0.5691	–	-1.08e-07 ± 1e-08
[4], x2 = 0.606	–	-1.06e-07 ± 1e-08
[4], x2 = 0.7502	–	-9e-08 ± 1e-08
[4], x2 = 0.8041	–	-8.3e-08 ± 1e-08
[4], x2 = 0.9032	–	-5.6e-08 ± 9e-09

Cc1cccc(C)c1 [1,3-dimethylbenzene]
Conditions	mass density [kg/m3]	refractive index
[1]	–	1.4946 ± 0.0012
[2]	851.53 ± 2.2	–

Cc1cccc(C)c1 [1,3-dimethylbenzene] + CCCCOC(C)=O
Conditions	excess molar enthalpy [kcal/mol]	excess molar volume [m3/mol]
[3], x2 = 0.1568	0.00237 ± 0.00043	–
[3], x2 = 0.1886	0.00332 ± 0.00043	–
[3], x2 = 0.2879	0.00409 ± 0.000454	–
[3], x2 = 0.4265	0.00523 ± 0.000478	–
[3], x2 = 0.4818	0.00528 ± 0.000478	–
[3], x2 = 0.5375	0.00554 ± 0.000478	–
[3], x2 = 0.6365	0.00559 ± 0.000478	–
[3], x2 = 0.7881	0.00457 ± 0.000454	–
[3], x2 = 0.8286	0.0043 ± 0.000454	–
[3], x2 = 0.9169	0.00284 ± 0.00043	–
[4], x2 = 0.1509	–	-7.7e-08 ± 1e-08
[4], x2 = 0.1651	–	-8.3e-08 ± 1e-08
[4], x2 = 0.2243	–	-9.4e-08 ± 1e-08
[4], x2 = 0.314	–	-1.27e-07 ± 1e-08
[4], x2 = 0.3921	–	-1.42e-07 ± 1e-08
[4], x2 = 0.5651	–	-1.44e-07 ± 1e-08
[4], x2 = 0.669	–	-1.31e-07 ± 1e-08
[4], x2 = 0.8091	–	-9.7e-08 ± 1e-08
[4], x2 = 0.8816	–	-5.2e-08 ± 9e-09
[4], x2 = 0.9052	–	-4.3e-08 ± 9e-09

Cc1ccc(C)cc1 [1,4-dimethylbenzene]
Conditions	mass density [kg/m3]	refractive index
[1]	–	1.4879 ± 0.0012
[2]	847.91 ± 2.2	–

c1ccccc1 [benzene]
Conditions	mass density [kg/m3]	refractive index
[1]	–	1.4921 ± 0.0012
[2]	862.93 ± 2.3	–

CCCCOC(C)=O [butyl ethanoate]
Conditions	mass density [kg/m3]	refractive index
[1]	–	1.3908 ± 0.0012
[2]	865.45 ± 2.3	–

CCCCOC(C)=O [butyl ethanoate] + C1CCCCC1
Conditions	excess molar enthalpy [kcal/mol]	excess molar volume [m3/mol]
[3], x1 = 0.1409	0.195 ± 0.00335	–
[3], x1 = 0.1975	0.256 ± 0.0043	–
[3], x1 = 0.2672	0.307 ± 0.00502	–
[3], x1 = 0.3389	0.333 ± 0.0055	–
[3], x1 = 0.4035	0.331 ± 0.0055	–
[3], x1 = 0.4961	0.3 ± 0.00502	–
[3], x1 = 0.5517	0.268 ± 0.00454	–
[3], x1 = 0.6466	0.205 ± 0.00359	–
[3], x1 = 0.7965	0.112 ± 0.00213	–
[3], x1 = 0.8311	0.0947 ± 0.00184	–
[3], x1 = 0.9061	0.0565 ± 0.00124	–
[4], x1 = 0.1062	–	3.47e-07 ± 2.1e-08
[4], x1 = 0.1575	–	4.35e-07 ± 2.1e-08
[4], x1 = 0.223	–	5.21e-07 ± 2.2e-08
[4], x1 = 0.3004	–	6.04e-07 ± 2.2e-08
[4], x1 = 0.4851	–	6.74e-07 ± 2.3e-08
[4], x1 = 0.4863	–	6.85e-07 ± 2.3e-08
[4], x1 = 0.5412	–	6.54e-07 ± 2.3e-08
[4], x1 = 0.6489	–	6.07e-07 ± 2.2e-08
[4], x1 = 0.735	–	4.98e-07 ± 2.2e-08
[4], x1 = 0.7661	–	4.06e-07 ± 2.1e-08
[4], x1 = 0.8854	–	1.95e-07 ± 2e-08

CCCCOC(C)=O [butyl ethanoate] + Cc1ccc(C)cc1
Conditions	excess molar enthalpy [kcal/mol]	excess molar volume [m3/mol]
[3], x1 = 0.0722	-0.00356 ± 0.00043	–
[3], x1 = 0.1892	-0.00856 ± 0.000526	–
[3], x1 = 0.3182	-0.0114 ± 0.00055	–
[3], x1 = 0.359	-0.0122 ± 0.000574	–
[3], x1 = 0.4828	-0.0138 ± 0.000598	–
[3], x1 = 0.6364	-0.0136 ± 0.000598	–
[3], x1 = 0.6512	-0.0136 ± 0.000598	–
[3], x1 = 0.7888	-0.0107 ± 0.00055	–
[3], x1 = 0.8394	-0.00882 ± 0.000526	–
[3], x1 = 0.9169	-0.00545 ± 0.000478	–
[4], x1 = 0.0881	–	-8e-08 ± 1e-08
[4], x1 = 0.163	–	-1.59e-07 ± 1e-08
[4], x1 = 0.314	–	-2.47e-07 ± 1e-08
[4], x1 = 0.3481	–	-2.81e-07 ± 1e-08
[4], x1 = 0.5001	–	-3.16e-07 ± 1e-08
[4], x1 = 0.6164	–	-3.18e-07 ± 1e-08
[4], x1 = 0.738	–	-2.82e-07 ± 1e-08
[4], x1 = 0.7871	–	-2.64e-07 ± 1e-08
[4], x1 = 0.8758	–	-2.21e-07 ± 1e-08
[4], x1 = 0.9179	–	-1.71e-07 ± 1e-08

CCCCOC(C)=O [butyl ethanoate] + Cc1ccccc1
Conditions	excess molar enthalpy [kcal/mol]	excess molar volume [m3/mol]
[3], x1 = 0.152	-0.00698 ± 0.000502	–
[3], x1 = 0.1873	-0.0086 ± 0.000526	–
[3], x1 = 0.2873	-0.012 ± 0.000574	–
[3], x1 = 0.3922	-0.0136 ± 0.000598	–
[3], x1 = 0.4465	-0.0143 ± 0.000598	–
[3], x1 = 0.502	-0.0148 ± 0.000621	–
[3], x1 = 0.543	-0.0151 ± 0.000621	–
[3], x1 = 0.6	-0.0148 ± 0.000621	–
[3], x1 = 0.7435	-0.0124 ± 0.000574	–
[3], x1 = 0.8705	-0.0086 ± 0.000526	–
[3], x1 = 0.8898	-0.00765 ± 0.000502	–
[4], x1 = 0.055	–	-1.9e-08 ± 9e-09
[4], x1 = 0.1581	–	-6e-08 ± 9e-09
[4], x1 = 0.2744	–	-8.2e-08 ± 1e-08
[4], x1 = 0.442	–	-1e-07 ± 1e-08
[4], x1 = 0.5243	–	-1.03e-07 ± 1e-08
[4], x1 = 0.6231	–	-1.02e-07 ± 1e-08
[4], x1 = 0.7619	–	-8.9e-08 ± 1e-08
[4], x1 = 0.849	–	-6.9e-08 ± 1e-08
[4], x1 = 0.9052	–	-5.1e-08 ± 9e-09

CCCCOC(C)=O [butyl ethanoate] + c1ccccc1
Conditions	excess molar enthalpy [kcal/mol]	excess molar volume [m3/mol]
[3], x1 = 0.1269	-0.00179 ± 0.000406	–
[3], x1 = 0.2523	-0.00335 ± 0.00043	–
[3], x1 = 0.4029	-0.005 ± 0.000454	–
[3], x1 = 0.4575	-0.00543 ± 0.000478	–
[3], x1 = 0.4958	-0.00586 ± 0.000478	–
[3], x1 = 0.5619	-0.00631 ± 0.000478	–
[3], x1 = 0.6599	-0.00655 ± 0.000478	–
[3], x1 = 0.7279	-0.00621 ± 0.000478	–
[3], x1 = 0.7714	-0.00586 ± 0.000478	–
[3], x1 = 0.8714	-0.00488 ± 0.000454	–
[4], x1 = 0.0901	–	4.2e-08 ± 9e-09
[4], x1 = 0.2214	–	7e-08 ± 1e-08
[4], x1 = 0.3662	–	7.6e-08 ± 1e-08
[4], x1 = 0.4623	–	6.9e-08 ± 1e-08
[4], x1 = 0.543	–	6e-08 ± 9e-09
[4], x1 = 0.6504	–	4.4e-08 ± 9e-09
[4], x1 = 0.7052	–	3.6e-08 ± 9e-09
[4], x1 = 0.7601	–	2.8e-08 ± 9e-09
[4], x1 = 0.8505	–	1.7e-08 ± 9e-09
[4], x1 = 0.937	–	6e-09 ± 9e-09

C1CCCCC1 [cyclohexane]
Conditions	mass density [kg/m3]	refractive index
[1]	–	1.4205 ± 0.0012
[2]	764.43 ± 2	–

Cc1ccccc1 [toluene]
Conditions	mass density [kg/m3]	refractive index
[1]	–	1.4885 ± 0.0012
[2]	852.8 ± 2.2	–
